Data from article PMC11111691, “Cystine-knot peptide inhibitors of HTRA1 bind to a cryptic pocket within the active site region” (Nature Communications, 2024).
Positions of bridges follow the written chain, without caps; N, C: chain ends. Residues, ends and D or L forms follow the SMILES beside them.

Assays:
HTRA3^PD/PDZ, HTRA3^FL = target: T1, HTRA3^PD/PDZ, HTRA3^FL (Homo sapiens, UniProt P83110); test: Fluorescence-quenched casein-BODIPY assay, HTRA3; assay type: biochemical; conditions: 2 µM CKP (0.5 mM 7mer-ABP)
T1 construct: purchased Abcam (FL form); the PD/PDZ form was made in house in E. coli ab134450
Method: The fluorescence-quenched casein-BODIPY® assay (EnzCheck®, Thermo Fisher Scientific) was carried out in TNC buffer (50 mM Tris pH 8.0, 200 mM NaCl, 0.25% CHAPS) at 37 °C in 96-well black optical bottom plates (Nalge Nunc Int., Rochester, NY). Enzymes were incubated with CKPs or DMSO control for 15 min prior to addition of casein substrate. The reactant concentrations were: 30 nM HTRA1^FL, 30 nM HTRA1^PD/PDZ, 30 nM HTRA1^PD, 30 nM HTRA2^PD/PDZ, 30 nM HTRA3^FL, 100 nM HTRA3^PD/PDZ, 30 nM HTRA4^FL, 300 nM HTRA4^PD/PDZ, 2 µM CKP, 5 µg/ml casein substrate and 0.25% DMSO. For selectivity assays, 0.5 mM 7mer-ABP was used as positive control. The kinetics of substrate cleavage were measured at 37 °C on a SpectraMax M5 microplate reader (Molecular Devices) with excitation of 485 nm and emission of 530 nm for 30 min (HTRA1 and HTRA2) or 5 h (HTRA3 and HTRA4). The determined initial rates of cleavage were expressed as percent of control (DMSO control) after subtracting the baseline rates (without enzyme).

HTRA4^PD/PDZ-Y200A = target: T2, HTRA4^PD/PDZ-Y200A (Homo sapiens, UniProt P83105, Y200A); test: H2-OPT enzyme assay, chimeric HTRA4^PD/PDZ-Y200A; assay type: biochemical; conditions: 1 µM HTRA4^PD/PDZ-Y200A, 10 µM 3B3, H2-OPT; read-out: Inhibition (reduction of enzyme activity) of HTRA4^PD/PDZ-Y200A
T2 construct: HTRA4 (HTRA4^PD/PDZ; G153-N476); made in house; host or cells: E. coli
T2 sequence (P83105 153-476 Y200A): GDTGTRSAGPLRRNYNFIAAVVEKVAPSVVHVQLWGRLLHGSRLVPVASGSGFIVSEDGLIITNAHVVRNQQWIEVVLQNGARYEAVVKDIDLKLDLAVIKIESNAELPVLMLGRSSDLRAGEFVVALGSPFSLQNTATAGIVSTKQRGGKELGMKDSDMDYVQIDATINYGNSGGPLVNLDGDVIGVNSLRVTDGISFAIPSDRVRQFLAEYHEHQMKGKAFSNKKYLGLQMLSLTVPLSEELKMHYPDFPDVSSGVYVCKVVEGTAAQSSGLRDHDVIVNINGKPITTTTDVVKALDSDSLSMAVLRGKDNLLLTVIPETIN
From the text: The protease domains of human HTRA1 (HTRA1^PD; D161-K379) and mouse HTRA1 (mHTRA1^PD; D161-K379) contained an N-terminal His6 tag followed by a TEV protease cleavage sequence as described recently. The chimeric HTRA1^PD-A202Y was made by introducing an A202Y mutation to the human HTRA1^PD construct. […] The protease-PDZ domains of human HTRA3 (HTRA3^PD/PDZ; L130-M453) and HTRA4 (HTRA4^PD/PDZ; G153-N476) contained a C-terminal thrombin cleavage sequence followed by a His6 tag[44]. The chimeric HTRA4^PD/PDZ-Y200A was made by introducing a Y200A mutation to the HTRA4^PD/PDZ construct. These constructs were expressed in E. coli and purified as described[38],[44],[47]. […] The purity of the trimeric HTRA proteins after size exclusion chromatography was assessed by SDS-PAGE and LC/MS. […]
Assays with the fluorescence-quenched synthetic substrate Mca-IRRVSYSFK(Dnp)K (H2-OPT)[38],[60] were carried out essentially as described. […] The kinetics of substrate cleavage was measured at 37 °C on a SpectraMax M5 microplate reader with excitation of 328 nm and emission of 393 nm. The determined initial rates of cleavage were expressed as percent of control (DMSO control) after subtracting the baseline rates (without enzyme). IC50 values were determined by Sigmoidal 4PL modeling of multiple data points from serial dilutions of CKPs using Prism 9 software (GraphPad). […]

Inhibition of HTRA3^FL, casein-BODIPY cleavage (% of control) (HTRA3^PD/PDZ, HTRA3^FL; 30 nM HTRA3^FL)	Inhibition of HTRA3^PD/PDZ, casein-BODIPY cleavage (% of control) (HTRA3^PD/PDZ, HTRA3^FL; 100 nM HTRA3^PD/PDZ)	Molecule	inhibition at 10 µM (HTRA4^PD/PDZ-Y200A) [%]
significantly inhibited	significantly inhibited	DPMFKLV-phosphonate [7mer-ABP]	
		CC[C@H](C)[C@H](NC(=O)[C@@H]1CCCN1C(=O)[C@H](CC(=O)O)NC(=O)[C@H](C)NC(=O)[C@@H](N)Cc1c[nH]cn1)C(=O)N[C@H]1CSSC[C@@H]2NC(=O)[C@H](Cc3ccccc3)NC(=O)[C@H](Cc3c[nH]c4ccccc34)NC(=O)[C@H](C)NC(=O)CNC(=O)[C@H](CO)NC(=O)[C@@H]3CSSC[C@@H](C(=O)NCC(=O)N4CCC[C@H]4C(=O)N[C@@H](Cc4ccc(O)cc4)C(=O)N[C@H](C(=O)NCC(N)=O)C(C)C)NC(=O)[C@H](CO)NC(=O)[C@H](Cc4c[nH]c5ccccc45)NC(=O)[C@H]([C@@H](C)O)NC(=O)[C@H](C)NC(=O)[C@H](Cc4ccc(O)cc4)NC(=O)[C@H](Cc4ccc(O)cc4)NC(=O)[C@H](CSSC[C@H](NC(=O)[C@@H]4CCCN4C(=O)[C@H](CCCCN)NC(=O)[C@H](CC(N)=O)NC1=O)C(=O)N[C@@H](CCCCN)C(=O)N[C@@H]([C@@H](C)O)C(=O)N[C@@H](Cc1c[nH]cn1)C(=O)N[C@@H](CC(=O)O)C(=O)N[C@@H](CC(=O)O)C(=O)N3)NC(=O)[C@H](C)NC(=O)[C@H](CCC(N)=O)NC2=O [3B3] (H-HADPICNKPCKTHDDCSGAWFCQACYYATWSCGPYVG-NH2; disulfide 6-22, 10-25, 16-32)	57
